Reference: patent US8673882B2, “Inhibitors of autotaxin” (University of Tennessee Research Foundation, priority 2011, dated 2014)

Experiments:
[1] = system: MM1 hepatocarcinoma cells; assay: Invasion of HUVEC monolayer by MM1 cells; format: cell-based, rat; details: 1.5 μM LPC; FIG. 14
From the text: (§1) Cancer metastasis is a complex process that cannon be accurately modeled in vitro. Models that utilize cellular monolayers for the invasion of carcinoma cell come the closest to the situation in vivo. Two different cell monolayers, mouse mesothelium and human vascular endothelium were used to examine the role of ATX in the invasion of MM1 hepatocarcinoma cells and the reduction of such invasion by the chemical compounds of the present application. The mesothelial monolayer is an accepted model for invasion of body cavities lined by serous cells whereas, the HUVEC monolayer is considered to be an in vitro model of hematogenous invasion of carcinomas.
(§2) Highly invasive MM1 cells originally isolated from the AH130 rat hepatoma cells were utilized in these studies. The cells were grown in suspension in DMEM supplemented with 10% fetal bovine serum, 2 mM glutamine, 100 units/ml penicillin and 10 μg/ml streptoinycin. Mesothelial cells were isolated and cultured from C57BL/6 mice. Human umbilical cord vascular endothelial cells (HUVEC) were obtained from VEC Technologies Inc., (Rensselaer, N.Y., USA) and were grown in MCDB-131 complete medium containing 10% fetal bovine serum. 90 μg/ml heparin, 10 ng/ml EGF, 1 μg/ml hydrocortisone, 0.2 mg/ml EndoGrowth supplement, 100 units/ml penicillin G, 100 μg/ml streptomycin and 25 μg/ml amphotericin B (all from VEC Technologies). Tumor cell invasion was performed by seeding 1.3×10^5 HUVECs (passage 7) into each well of a 12-well plate pre-coated with 0.2% gelatin (Sigma) and cultured for 2 days to form a confluent monolayer. Mesothelial cells harvested from two-three mice were initially plated in 6-well plates and grown to confluency in DMEM medium supplemented with 10% fetal bovine serum in the presence of 100 units/ml penicillin G and 10 μg/ml streptomycin. When confluent, the mesothelial cells were split into three equal aliquots (˜5×10^4 cells each) and plated to three wells of a 12-well plate and grown to confluence.
Invasion of MM1 cells of Example 53 was determined and the effect of compounds of the present application in reducing the invasion was determined. For all invasion assays, MM1 cells were pre-stained with 2 μg/ml calcein AM (Invitrogen, USA) for 2 h, rinsed once, and seeded at a density of 5×10^4 cells/well over the monolayers. Tumor cells were left to invade the HUVEC monolayer for 24 h in MCDB-131 complete media containing 1% serum with or without addition of 1.5 μM LPC. MM1 cells were plated on the mesothelial monolayers in 2% fetal bovine serum-supplemented DMEM medium in the presence of 100 units/ml penicillin G and 10 μg/ml streptomycin with or without 1.5 μM LPC (5 μM for the mesothelium cells) and invasion was allowed to proceed for 20 h. The day after MM1 cell seeding, non-invaded tumor cells were removed by repeated five rinses of the HUVEC monolayer (three rinses for the mesothelial monolayers) with PBS (containing Ca^2+ and Mg^2+) followed by fixation with 10% buffered formalin. The number of tumor cells that penetrated the monolayer was photographed under a NIKON TiU inverted microscope using phase-contrast and fluorescence illumination in a minimum of five non-overlapping fields at 100× magnification. The fluorescent images were overlayed on top of the phase contrast images using the Elements BR software (version 3.1x) and the invaded MM1 cells showing the characteristic flattened morphology in the plane of focus underneath the monolayer were counted. […]

[2] = system: MM1 hepatocarcinoma cells; assay: Invasion of mesothelial cell monolayer by MM1 cells; format: cell-based, rat
From the text: as §1, §2
Invasion of MM1 cells of Example 53 was determined and the effect of compounds of the present application in reducing the invasion was determined. For all invasion assays, MM1 cells were pre-stained with 2 μg/ml calcein AM (Invitrogen, USA) for 2 h, rinsed once, and seeded at a density of 5×10^4 cells/well over the monolayers. […] The number of tumor cells that penetrated the monolayer was photographed under a NIKON TiU inverted microscope using phase-contrast and fluorescence illumination in a minimum of five non-overlapping fields at 100× magnification. The fluorescent images were overlayed on top of the phase contrast images using the Elements BR software (version 3.1x) and the invaded MM1 cells showing the characteristic flattened morphology in the plane of focus underneath the monolayer were counted. […]

breast and colon cancers = details: xenograft models, Zhang et al 2009; cited from earlier work

CCCCCCCCCCCCCc1ccc2cc(CP(=O)(OC)OC)ccc2c1 [Compound 33b, Dimethyl-6-tridecylnaphthalen-2-yl-methylphosphonate]
LPC-dependent invasion of the HUVEC monolayer [1]: blockage
MM1 cell invasion of the mesothelial monolayer ([2]; with LPC, FIG. 12 panel E): inhibition

LPA bromophosphonate [LPA-BP]
metastasis of breast and colon cancers (breast and colon cancers): inhibit the metastasis

lysophosphatidylcholine [LPC, reference compound]
effect of LPC on invasion in the co-culture ([2]; FIG. 12d, mesothelial cell layers): increases invasion in a dose-dependent manner
